# Source: patent US20230165251A1, “SUBSTITUTED TOLYL FUNGICIDES AND THEIR MIXTURES” (FMC Corporation, priority 2020, published 2023)
# Key:
# Type in all cases: in vivo
# Phakopsora pachyrhizi [1] = experiment: Test G: Compound 41 or 63 alone and in mixtures on soybean seedlings, Asian soybean rust, Colby synergy
# Excerpt: The general protocol for preparing test compositions for TEST G was as follows: Compound 41, Compound 63, N-(2,2,2-trifluoroethyl)-2-[[4-[5-(trifluoromethyl)-1,2,4-oxadiazol-3-yl]phenyl]methyl]-4-oxazolecarboxamide (b54.11a), ethyl 1-[[4-[[(1Z)-2-ethoxy-3,3,3-trifluoro-1-propen-1-yl]oxy]phenyl]methyl]-1H-pyrazole-4-carboxylate (b54.11c), ethyl 1-[[4-[[2-(trifluoromethyl)-1,3-dioxolan-2-yl]methoxy]phenyl]methyl]-1H-pyrazole-4-carboxylate (b54.11d), azoxystrobin, benzovindiflupyr, bixafen, chlorothalonil, cyproconazole, epoxiconazole, fenpropidin, fenpropimorph, fluindapyr, flutriafol, fluxapyroxad, inpyrfluxam, picoxystrobin, prothioconazole, pydiflumetofen, tebuconazole and trifloxystrobin were obtained as unformulated, technical-grade materials. Copper hydroxide and mancozeb was obtained as a formulated product marketed under the trademarks KOCIDE 3000 and MANZATE, respectively. Unformulated materials were first dissolved in acetone and then suspended at the desired concentration (in ppm) in acetone and purified water (50/50 mix by volume) containing 250 ppm of the surfactant Trem® 014 (polyhydric alcohol esters). Formulated materials were dispersed in sufficient water to give the desired concentration, and neither organic solvent nor surfactant was added to the suspension. The resulting test mixtures were then used in TEST G. The tests were run on four individual plants and the results reported as the mean average of the four plants.
# The presence of a synergistic effect between two active ingredients was established with the aid of the Colby equation (see Colby, S. R. “Calculating Synergistic and Antagonistic Responses of Herbicide Combinations”, Weeds, (1967), 15, 20-22):
# Using the method of Colby, the presence of a synergistic interaction between two active ingredients is established by first calculating the predicted activity, p, of the mixture based on activities of the two components applied alone. If p is lower than the experimentally established effect, synergism has occurred. In the equation above, A is the fungicidal activity in percentage control of one component applied alone at rate x. The B term is the fungicidal activity in percentage control of the second component applied at rate y. The equation estimates p, the expected fungicidal activity of the mixture of A at rate x with B at rate y if their effects are strictly additive and no interaction has occurred.
# (§1) The test mixture was sprayed to the point of run-off on soybean seedlings. The following day the seedlings were inoculated with a spore suspension of Phakopsora pachyrhizi (the causal agent of Asian soybean rust) and incubated in a saturated atmosphere at 22° C. for 24 h and then moved to a growth chamber at 22° C. for 8 days, after which time visual disease ratings were made.
# Results for TEST G are given below in Tables B-1 through J-1 for Compound 41, and Tables B-2 through J-2 for Compound 63. Each table corresponds to a set of evaluations performed together at the same time. In each table, a rating of 100 indicates 100% disease control and a rating of 0 indicates no disease control (relative to the controls). Columns labeled “Obsd” indicate the average of results observed from test run on four individual plants. Columns labeled “Exp” indicate the expected value for each treatment mixture using the Colby equation.
# [2] = system: Puccinia recondita f. sp. tritici; experiment: Test B: preventive spray on wheat seedlings, wheat leaf rust; details: Rate 10 ppm
# Excerpt: (§2) General protocol for preparing test suspensions for Tests A-F: the test compounds were first dissolved in acetone in an amount equal to 3% of the final volume and then suspended at the desired concentration (in ppm) in acetone and purified water (50/50 mix by volume) containing 250 ppm of the surfactant PEG400 (polyhydric alcohol esters). The resulting test suspensions were then used in Tests A-F.
# The test solution was sprayed to the point of run-off on wheat seedlings. The following day the seedlings were inoculated with a spore suspension of Puccinia recondita f. sp. tritici (the causal agent of wheat leaf rust) and incubated in a saturated atmosphere at 20° C. for 24 h, and then moved to a growth chamber at 20° C. for 7 days, after which time disease ratings were made.
# (§3) A rating of 100 indicates 100% disease control and a rating of 0 indicates no disease control (relative to the controls). A dash (-) indicates the compound was not tested.
# Phakopsora pachyrhizi [3] = experiment: Test D: preventive spray on soybean seedlings, Asian soybean rust; details: Rate 10 ppm
# Excerpt: as §2
# as §1, with “solution” for “mixture”
# as §3
smiles,measurement,setting,value
"OC(Cn1cncn1)(c1ccc(F)cc1)c1ccccc1F (centres unmarked) [Flutriafol, flutriafol]",pest or weed control at 544.265 ppm,"Phakopsora pachyrhizi [1]; Phakopsora pachyrhizi, flutriafol alone 544.265 ppm, read-out: Test G Obsd",13%
same,pest or weed control at 1124.02 ppm,"Phakopsora pachyrhizi [1]; Phakopsora pachyrhizi, flutriafol alone 1124.021 ppm, read-out: Test G Obsd",52%
"CON(C(=O)c1cn(C)nc1C(F)F)C(C)Cc1c(Cl)cc(Cl)cc1Cl (centres unmarked) [Pydiflumetofen, pydiflumetofen]",Test G Obsd,Phakopsora pachyrhizi [1]; pydiflumetofen alone 41.364 ppm,49%
same,Test G Obsd,Phakopsora pachyrhizi [1]; pydiflumetofen alone 70.950 ppm,0%
same,Test G Obsd,Phakopsora pachyrhizi [1]; pydiflumetofen alone 128.793 ppm,36%
same,Test G Obsd,Phakopsora pachyrhizi [1]; pydiflumetofen alone 135.850 ppm,73%
"Cn1cc(C(=O)Nc2ccccc2-c2cc(F)c(F)c(F)c2)c(C(F)F)n1 [Fluxapyroxad, fluxapyroxad]",Test G Obsd,"Phakopsora pachyrhizi [1]; Table C-1, fluxapyroxad 2.757 ppm alone",19%
same,Test G Obsd,"Phakopsora pachyrhizi [1]; Table C-1, fluxapyroxad 4.748 ppm alone",52%
same,Test G Obsd,"Phakopsora pachyrhizi [1]; Table C-2, fluxapyroxad 2.757 ppm alone",19%
same,Test G Obsd,"Phakopsora pachyrhizi [1]; Table C-2, fluxapyroxad 4.748 ppm alone",52%
"Cn1cc(C(=O)Nc2ccc(F)cc2-c2ccc(Cl)c(Cl)c2)c(C(F)F)n1 [Bixafen, bixafen]",Test G Obsd,"Phakopsora pachyrhizi [1]; Table C-1, bixafen 11.327 ppm alone",54%
same,Test G Obsd,"Phakopsora pachyrhizi [1]; Table C-1, bixafen 19.525 ppm alone",55%
same,Test G Obsd,"Phakopsora pachyrhizi [1]; Table C-2, bixafen 11.327 ppm alone",54%
same,Test G Obsd,"Phakopsora pachyrhizi [1]; Table C-2, bixafen 19.525 ppm alone",55%
"OC(Cc1ccccc1Cl)(Cn1nc[nH]c1=S)C1(Cl)CC1 (centres unmarked) [Prothioconazole, prothioconazole]",pest or weed control at 10.165 ppm,"Phakopsora pachyrhizi [1]; Phakopsora pachyrhizi, prothioconazole alone 10.165 ppm, read-out: Test G Obsd",7%
same,pest or weed control at 16.339 ppm,"Phakopsora pachyrhizi [1]; Phakopsora pachyrhizi, prothioconazole alone 16.339 ppm, read-out: Test G Obsd",65%
O=C(NCC(F)(F)F)c1coc(Cc2ccc(-c3noc(C(F)(F)F)n3)cc2)n1 [(b54.11a)],Test G Obsd,"Phakopsora pachyrhizi [1]; Table B-1, (b54.11a) 0.471 ppm alone",59%
same,Test G Obsd,"Phakopsora pachyrhizi [1]; Table B-1, (b54.11a) 0.764 ppm alone",75%
"CO/C=C(/C(=O)OC)c1ccccc1Oc1cc(Oc2ccccc2C#N)ncn1 [Azoxystrobin, azoxystrobin]",Test G Obsd,Phakopsora pachyrhizi [1]; azoxystrobin alone 95.873 ppm,70%
same,Test G Obsd,Phakopsora pachyrhizi [1]; azoxystrobin alone 169.226 ppm,90%
"CC(C)(C)C(O)(CCc1ccc(Cl)cc1)Cn1cncn1 (centres unmarked) [Tebuconazole, tebuconazole]",pest or weed control at 486.921 ppm,"Phakopsora pachyrhizi [1]; Phakopsora pachyrhizi, tebuconazole alone 486.921 ppm, read-out: Test G Obsd",30%
same,pest or weed control at 841.166 ppm,"Phakopsora pachyrhizi [1]; Phakopsora pachyrhizi, tebuconazole alone 841.166 ppm, read-out: Test G Obsd",55%
"CC(Cc1ccc(C(C)(C)C)cc1)CN1CCCCC1 (centres unmarked) [Fenpropidin, fenpropidin]",pest or weed control at 78.393 ppm,"Phakopsora pachyrhizi [1]; Phakopsora pachyrhizi, fenpropidin alone 78.393 ppm, read-out: Test G Obsd",45%
same,pest or weed control at 161.74 ppm,"Phakopsora pachyrhizi [1]; Phakopsora pachyrhizi, fenpropidin alone 161.740 ppm, read-out: Test G Obsd",68%
"C[C@@H]1CC(C)(C)c2cccc(NC(=O)c3cn(C)nc3C(F)F)c21 [Inpyrfluxam, inpyrfluxam]",Test G Obsd,Phakopsora pachyrhizi [1]; inpyrfluxam alone 0.448 ppm,56%
same,Test G Obsd,Phakopsora pachyrhizi [1]; inpyrfluxam alone 1.059 ppm,79%
"CC(C1CC1)C(O)(Cn1cncn1)c1ccc(Cl)cc1 (centres unmarked) [Cyproconazole, cyproconazole]",pest or weed control at 37.333 ppm,"Phakopsora pachyrhizi [1]; Phakopsora pachyrhizi, cyproconazole alone 37.333 ppm, read-out: Test G Obsd",44%
same,pest or weed control at 64.883 ppm,"Phakopsora pachyrhizi [1]; Phakopsora pachyrhizi, cyproconazole alone 64.883 ppm, read-out: Test G Obsd",68%
"CO/C=C(/C(=O)OC)c1ccccc1COc1cccc(C(F)(F)F)n1 [Picoxystrobin, picoxystrobin]",Test G Obsd,Phakopsora pachyrhizi [1]; picoxystrobin alone 20.596 ppm,63%
same,Test G Obsd,Phakopsora pachyrhizi [1]; picoxystrobin alone 33.856 ppm,79%
same,Test G Obsd,Phakopsora pachyrhizi [1]; picoxystrobin alone 33.865 ppm,79%
CCc1cc(F)c(-n2ccc(-c3ccc(C)c(CNC(=O)OC)c3)n2)c(F)c1 [compound 144],Test B disease control rating,[2],100%
same,Test D disease control rating,Phakopsora pachyrhizi [3],100%
COC(=O)NCc1cc(-c2ccn(-c3c(F)cc(OCC(F)(F)F)cc3F)n2)ccc1C [compound 22],Test B disease control rating,[2],99%
same,Test D disease control rating,Phakopsora pachyrhizi [3],100%
"CC(Cc1ccc(C(C)(C)C)cc1)CN1C[C@@H](C)O[C@@H](C)C1 (some centres unmarked) [Fenpropimorph, fenpropimorph]",pest or weed control at 242.823 ppm,"Phakopsora pachyrhizi [1]; Phakopsora pachyrhizi, fenpropimorph alone 242.823 ppm, read-out: Test G Obsd",33%
same,pest or weed control at 458.587 ppm,"Phakopsora pachyrhizi [1]; Phakopsora pachyrhizi, fenpropimorph alone 458.587 ppm, read-out: Test G Obsd",44%
"N#Cc1c(Cl)c(Cl)c(Cl)c(C#N)c1Cl [Chlorothalonil, chlorothalonil]",pest or weed control at 138.129 ppm,"Phakopsora pachyrhizi [1]; Phakopsora pachyrhizi, chlorothalonil alone 138.129 ppm, read-out: Test G Obsd",59%
same,pest or weed control at 222.081 ppm,"Phakopsora pachyrhizi [1]; Phakopsora pachyrhizi, chlorothalonil alone 222.081 ppm, read-out: Test G Obsd",85%
COC(=O)NCc1cc(-c2ccn(-c3c(F)cc(N4CCCC4)cc3F)n2)ccc1C [compound 150],Test B disease control rating,[2],68%
same,Test D disease control rating,Phakopsora pachyrhizi [3],0%
COC(=O)NCc1cc(-c2ccn(-c3c(F)cc(N)cc3Cl)n2)ccc1C [compound 39],Test B disease control rating,[2],0%
same,Test D disease control rating,Phakopsora pachyrhizi [3],0%
COC(=O)NCc1cc(-c2ccn(-c3c(F)cc([N+](=O)[O-])cc3Cl)n2)ccc1C [compound 37],Test B disease control rating,[2],26%
same,Test D disease control rating,Phakopsora pachyrhizi [3],0%
"Cn1cc(C(=O)Nc2cccc3c2[C@@H]2CC[C@H]3C2=C(Cl)Cl)c(C(F)F)n1 (racemic) [Benzovindiflupyr, benzovindiflupyr]",Test G Obsd,Phakopsora pachyrhizi [1]; benzovindiflupyr alone 0.606 ppm,67%
same,Test G Obsd,Phakopsora pachyrhizi [1]; benzovindiflupyr alone 0.980 ppm,67%
"CON=C(C(=O)OC)c1ccccc1CON=C(C)c1cccc(C(F)(F)F)c1 [Trifloxystrobin, trifloxystrobin]",pest or weed control at 20.511 ppm,"Phakopsora pachyrhizi [1]; Phakopsora pachyrhizi, trifloxystrobin alone 20.511 ppm, read-out: Test G Obsd",46%
same,pest or weed control at 35.31 ppm,"Phakopsora pachyrhizi [1]; Phakopsora pachyrhizi, trifloxystrobin alone 35.310 ppm, read-out: Test G Obsd",76%
COC(=O)NCc1cc(-c2ccn(-c3c(F)cc(C4(C)CC4)cc3F)n2)ccc1C [compound 74],Test B disease control rating,[2],100%
same,Test D disease control rating,Phakopsora pachyrhizi [3],100%
COC(=O)NCc1cc(-c2ccn(-c3c(Cl)cc(Cl)cc3Cl)n2)ccc1C [compound 57],Test B disease control rating,[2],74%
same,Test D disease control rating,Phakopsora pachyrhizi [3],100%
"CC1CC(C)(C)c2c(F)ccc(NC(=O)c3cn(C)nc3C(F)F)c21 (centres unmarked) [Fluindapyr, fluindapyr]",Test G Obsd,"Phakopsora pachyrhizi [1]; Table C-1, fluindapyr 8.820 ppm alone",61%
same,Test G Obsd,"Phakopsora pachyrhizi [1]; Table C-1, fluindapyr 15.230 ppm alone",79%
same,Test G Obsd,"Phakopsora pachyrhizi [1]; Table C-2, fluindapyr 8.820 ppm alone",61%
same,Test G Obsd,"Phakopsora pachyrhizi [1]; Table C-2, fluindapyr 15.230 ppm alone",79%
"Fc1ccc([C@]2(Cn3cncn3)O[C@H]2c2ccccc2Cl)cc1 (racemic) [Epoxiconazole, epoxiconazole]",pest or weed control at 46.795 ppm,"Phakopsora pachyrhizi [1]; Phakopsora pachyrhizi, epoxiconazole alone 46.795 ppm, read-out: Test G Obsd",23%
same,pest or weed control at 89.631 ppm,"Phakopsora pachyrhizi [1]; Phakopsora pachyrhizi, epoxiconazole alone 89.631 ppm, read-out: Test G Obsd",70%
COC(=O)NCc1cc(-c2ccn(-c3c(F)cc(N4CCN(C)CC4)cc3F)n2)ccc1C [compound 148],Test B disease control rating,[2],0%
same,Test D disease control rating,Phakopsora pachyrhizi [3],0%
COC(=O)NCc1cc(-c2ccn(-c3c(Cl)cc([N+](=O)[O-])cc3Cl)n2)ccc1C [compound 54],Test B disease control rating,[2],0%
same,Test D disease control rating,Phakopsora pachyrhizi [3],0%
COC(=O)NCc1cc(-c2ccn(-c3c(Br)cccc3I)n2)ccc1C [compound 52],Test B disease control rating,[2],0%
same,Test D disease control rating,Phakopsora pachyrhizi [3],99%
COC(=O)NCc1cc(-c2ccn(-c3c(F)cc(Br)cc3Cl)n2)ccc1C [compound 50],Test B disease control rating,[2],100%
same,Test D disease control rating,Phakopsora pachyrhizi [3],100%
C=Cc1cc(F)c(-n2ccc(-c3ccc(C)c(CNC(=O)OC)c3)n2)c(F)c1 [compound 146],Test B disease control rating,[2],100%
same,Test D disease control rating,Phakopsora pachyrhizi [3],100%
COC(=O)NCc1cc(-c2ccn(-c3c(F)cc(I)cc3SC)n2)ccc1C [compound 26],Test B disease control rating,[2],73%
same,Test D disease control rating,Phakopsora pachyrhizi [3],87%
